Laboratory results reported in US11337971B2, “Dopamine D3 receptor selective antagonists/partial agonists and uses thereof” (THE UNITED STATES OF AMERICA, AS REPRESENTED BY THE …, priority 2018, dated 2022).
Where “and” joins values, the source holds several entries; their conditions need not be identical. Identical values can stand only once. Like-named read-outs stand apart in the source and are kept apart here.

Assays:
human D3R = human D3R (Homo sapiens (Human), UniProt P35462); test: Radioligand competition binding, [3H]N-methylspiperone, HEK293 membranes expressing human D3R; conditions: read-out: D3R Ki ± SEM
In short: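 HEK293 membranes (10 μg protein) incubated 1 h at room temperature in EBSS with 0.2 mM sodium metabisulfite, 0.4 nM [3H]N-methylspiperone and compound (10 μM to 10 pM, triplicate). Nonspecific binding defined with 10 μM butaclamol; GF/B filtration.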

human D4R = human D4R (Homo sapiens (Human), UniProt P21917); test: Radioligand competition binding, [3H]N-methylspiperone, HEK293 membranes expressing human D4R; conditions: Table 1A; μM; read-out: D4R Ki
In short: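 HEK293 membranes with human D4R (20 μg protein) and 0.4 nM [3H]N-methylspiperone in EBSS with sodium metabisulfite, 1 h at room temperature, filtration read-out. Compounds 10 μM to 10 pM; nonspecific binding with 10 μM butaclamol. Ki by Cheng-Prusoff from IC50, at least three experiments.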

human dopamine D3R = human dopamine D3R (Homo sapiens (Human), UniProt P35462); test: D3R mitogenesis assay: stimulation or inhibition of quinpirole-stimulated mitogenesis in CHO cells; format: cell-based; conditions: Table 2a; inhibition of quinpirole-stimulated mitogenesis; read-out: Antagonist IC50 ± SEM
[1] = Phase I metabolic stability in rhesus monkey liver microsomes; format: in vitro ADME
[2] = Phase I metabolic stability in human liver microsomes; format: in vitro ADME
[3] = test system: oxycodone-induced locomotor sensitization and CPP; test: Acquisition of oxycodone-induced locomotor sensitization and CPP; conditions: in vivo

Chain of human D3R (P35462 whole entry): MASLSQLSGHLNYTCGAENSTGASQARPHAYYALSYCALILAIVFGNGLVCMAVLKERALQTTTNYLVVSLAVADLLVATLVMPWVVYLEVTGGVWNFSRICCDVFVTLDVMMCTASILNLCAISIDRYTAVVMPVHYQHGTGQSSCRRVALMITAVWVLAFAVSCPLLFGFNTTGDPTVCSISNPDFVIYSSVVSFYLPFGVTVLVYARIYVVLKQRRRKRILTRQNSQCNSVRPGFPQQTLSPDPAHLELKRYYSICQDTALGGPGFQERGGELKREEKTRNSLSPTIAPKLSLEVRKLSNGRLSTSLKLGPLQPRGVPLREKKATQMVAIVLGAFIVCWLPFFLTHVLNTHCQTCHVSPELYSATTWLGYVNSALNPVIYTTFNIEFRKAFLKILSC
Chain of human dopamine D3R (P35462 whole entry): as above
Chain of human D4R (P21917 whole entry): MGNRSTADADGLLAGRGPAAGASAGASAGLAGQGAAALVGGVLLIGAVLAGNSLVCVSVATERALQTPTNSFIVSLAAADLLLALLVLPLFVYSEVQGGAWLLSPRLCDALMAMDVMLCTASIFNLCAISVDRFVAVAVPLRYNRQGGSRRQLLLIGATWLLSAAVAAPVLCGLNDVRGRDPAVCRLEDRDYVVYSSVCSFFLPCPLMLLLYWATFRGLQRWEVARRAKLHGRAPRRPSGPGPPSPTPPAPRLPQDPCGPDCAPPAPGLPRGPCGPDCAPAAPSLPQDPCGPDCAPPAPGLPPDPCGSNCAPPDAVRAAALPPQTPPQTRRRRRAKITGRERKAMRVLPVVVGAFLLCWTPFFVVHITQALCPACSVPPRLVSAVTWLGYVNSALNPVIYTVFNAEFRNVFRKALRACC

CCc1cc(Cl)c(OC)c(N2CCN(CC(O)CCNC(=O)c3cc4ccccc4[nH]3)CC2)c1 (racemic) [Compound 29, N-(4-(4-(3-chloro-5-ethyl-2-methoxyphenyl)piperazin-1-yl)-3-hydroxybutyl)-1H-indole-2-carboxamide]
Ki (human D3R; Table 1B, [3H]-N-methylspiperone competition, 96-well plates): 7 nM and 6.84 nM
Ki (human D3R; Table 1C): 7.61 ± 1.17 nM
Ki (human D4R): > 100 µM
IC50 (human dopamine D3R): 360 ± 100 nM
% at 0 min. ([1]; 0 min): 100%
% at 30 min. ([1]; 30 min): 79%
% at 60 min. ([1]; 60 min): 66%
% at 0 min. ([2]; 0 min): 100%
% at 30 min. ([2]; 30 min): 89%
% at 60 min. ([2]; 60 min): 73%
acquisition of oxycodone-induced locomotor sensitization and CPP [3]: significantly inhibits acquisition of both oxycodone-induced locomotor sensitization and CPP
